Reference: patent publication US20250092111A1, “POTENT AND STABLE POLYPEPTIDE ANALOGUES VIA SERINE/THREONINE LIGATION” (UNIVERSITY OF WASHINGTON, priority 2022, published 2025)

Test system: mouse model of glucose disposal
Assay: Glucose tolerance test (GTT) in vivo
Conditions: standard glucose tolerance test, data not shown
Experimental: Given the promising activation and stability data, the peptides were tested in vivo using a standard glucose tolerance test (GTT).

## CCCCCCCCCCCCCCCCCCOCCOCCOCCOCCOCCC(=O)N[C@@H](CO)C(=O)NCCCC[C@H](NC(=O)[C@H](CO)NC(=O)[C@@H](NC(=O)[C@H](CC(=O)O)NC(=O)[C@H](CO)NC(=O)[C@@H](NC(=O)[C@H](Cc1ccccc1)NC(=O)[C@@H](NC(=O)CNC(=O)[C@H](CCC(=O)O)NC(=O)[C@H](C)NC(=O)[C@@H](N)Cc1c[nH]cn1)[C@@H](C)O)[C@@H](C)O)C(C)C)C(=O)N[C@@H](Cc1ccc(O)cc1)C(=O)N[C@@H](CC(C)C)C(=O)N[C@@H](CCC(=O)O)C(=O)NCC(=O)N[C@@H](CCC(N)=O)C(=O)N[C@@H](C)C(=O)N[C@@H](C)C(=O)N[C@@H](CCCCN)C(=O)N[C@@H](CCC(=O)O)C(=O)N[C@@H](Cc1ccccc1)C(=O)N[C@H](C(=O)N[C@@H](C)C(=O)N[C@@H](Cc1c[nH]c2ccccc12)C(=O)N[C@@H](CC(C)C)C(=O)N[C@H](C(=O)N[C@@H](CCCCN)C(=O)NCC(=O)N[C@@H](CCCNC(=N)N)C(=O)NCC(=O)O)C(C)C)[C@@H](C)CC [Peptide G2]
  glucose disposal efficiency compared to unmodified GLP-1: improved glucose disposal efficiency
